By MIC is commonly meant the smallest concentration in the dilution series that meets the test's criterion for growth inhibition.

Common to all, as to assay type: cell-based
Test [1] has as its system Streptococcus faecalis ATCC 10541. The test can be described thus: MIC, two-fold dilution method, Streptococcus faecalis ATCC 10541. The conditions noted are these: 10^6 CFU per ml, 37° C., 18 to 20 hours; for MIC: Enterococcus faecalis, ATCC10541, Muller Hinton Broth, read-out: Antibacterial Activity (MIC); for Antibacterial Activity (MIC): Muller Hinton Broth. The essentials:
(§1)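 Two-fold serial dilutions of compound were prepared in Mueller Hinton Broth and inoculated with the standard strain at 10^6 CFU per ml. Cultures were incubated at 37° C. for 18 to 20 hours, and the MIC was taken as the minimal inhibitory concentration.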

The test system of test [2] is Pseudomonas aeurginosa NCTC 10490. Nature of the test: MIC, two-fold dilution method, Pseudomonas aeurginosa NCTC 10490. As to conditions: 10^6 CFU per ml, 37° C., 18 to 20 hours; for MIC: NCTC10490, Muller Hinton Broth, read-out: Antibacterial Activity (MIC); for Antibacterial Activity (MIC): Muller Hinton Broth. Put shortly: as §1
Test [3] concerns Staphylococcus aureus ATCC 65389. The test can be described thus: MIC, two-fold dilution method, Staphylococcus aureus ATCC 65389. As to conditions: 10^6 CFU per ml, 37° C., 18 to 20 hours; for MIC: ATCC65389, Muller Hinton Broth, read-out: Antibacterial Activity (MIC); for Antibacterial Activity (MIC): Muller Hinton Broth. The essentials:
as §1

Test [4] relates to Esherichia coli ATCC 25922. The test can be described thus: MIC, two-fold dilution method, Esherichia coli ATCC 25922. As to conditions: Muller Hinton Broth, 10^6 CFU per ml, 37° C., 18 to 20 hours; for MIC: read-out: Antibacterial Activity (MIC). Put shortly:
as §1

For test [5], the system named is Bacillus subtilis ATCC 6633. Nature of the test: MIC, two-fold dilution method, Bacillus subtilis ATCC 6633. The conditions noted are these: 10^6 CFU per ml, 37° C., 18 to 20 hours; for MIC: ATCC6633, Muller Hinton Broth, read-out: Antibacterial Activity (MIC); for Antibacterial Activity (MIC): Muller Hinton Broth. Put shortly:
as §1

For test [6], the system named is Staphylococcus epidermidis ATCC 12228. The test can be described thus: MIC, two-fold dilution method, Staphylococcus epidermidis ATCC 12228. The conditions noted are these: 10^6 CFU per ml, 37° C., 18 to 20 hours; for MIC: ATCC12228, Muller Hinton Broth, read-out: Antibacterial Activity (MIC); for Antibacterial Activity (MIC): Muller Hinton Broth. Put shortly:
as §1

For test [7], the system named is Klebsiella pneumoniae ATCC 10031. Nature of the test: MIC, two-fold dilution method, Klebsiella pneumoniae ATCC 10031. As to conditions: 10^6 CFU per ml, 37° C., 18 to 20 hours; for MIC: ATCC10031, Muller Hinton Broth, read-out: Antibacterial Activity (MIC); for Antibacterial Activity (MIC): Muller Hinton Broth. The essentials:
as §1

The structures appear in SMILES notation. Values after ≈ are worked out from the molar mass of the structure shown.

In the case of `C#CCO/N=C(\C(=O)NC1C(=O)N2C(C(=O)[O-])=C(CSc3cc[n+](C4CC4)c4cc(N5CCN(C)CC5)c(F)cc34)CSC12)c1csc(N)n1` (stereo not shown) [Compound I-42, 7-[(Z)-2-(2-aminothiazol-4-yl)-2-(propargyloxyimino)acetamido]-3-[1-cyclopropyl-6-fluoro-7-(N-methylpiperazinyl)quinolinium-4-yl]thiomethyl-3-cephem-4-carboxylate], the MIC is 0.39 µg/mL (≈ 0.529 µM) in test [1]; 3.13 µg/mL (≈ 4.25 µM) in test [2]; 0.78 µg/mL (≈ 1.06 µM) in test [3]; 3.13 µg/mL (≈ 4.25 µM) in test [4]; 0.2 µg/mL (≈ 0.271 µM) in test [5]; 0.78 µg/mL (≈ 1.06 µM) in test [6]. For the same compound, the MIC in test [7] was 3.13 µg/mL (≈ 4.25 µM).

With `CO/N=C(\C(=O)NC1C(=O)N2C(C(=O)[O-])=C(CSc3cc[n+](C4CC4)c4cc(N5CCNCC5C)c(F)cc34)CS[C@H]12)c1csc(N)n1` (stereo partly shown) [Compound I-8, 7-[(Z)-2-(2-aminothiazol-4-yl)-2-(methoxyimino)acetamido]-3-[1-cyclopropyl-6-fluoro-7-(2-methylpiperazinyl)quinolinium-4-yl]thiomethyl-3-cephem-4-carboxylate], the “Antibacterial Activity (MIC)” value in test [1] stood at 0.2 µg/mL; in test [2], 0.39 µg/mL; in test [3], 0.39 µg/mL; in test [4], 0.78 µg/mL; in test [5], 0.2 µg/mL; in test [6] it was 0.2 µg/mL. Also, the “Antibacterial Activity (MIC)” value in test [7] was 0.05 µg/mL.

On to `C=CCO/N=C(\C(=O)NC1C(=O)N2C(C(=O)[O-])=C(CSc3cc[n+](C)c4cc(N5CCNCC5)c(F)cc34)CS[C@H]12)c1csc(N)n1` (stereo partly shown) [Compound I-21, 7-[(Z)-2-(2-aminothiazol-4-yl)-2-(allyloxyimino)acetamido]-3-(1-methyl-6-fluoro-7-piperazinylquinolinium-4-yl)thiomethyl-3-cephem-4-carboxylate], for which the MIC in test [1] stood at 0.025 µg/mL (≈ 0.0358 µM); in test [2], 6.25 µg/mL (≈ 8.94 µM); in test [3], 0.2 µg/mL (≈ 0.286 µM); in test [4] it was 3.13 µg/mL (≈ 4.48 µM); in test [5], 0.39 µg/mL (≈ 0.558 µM); in test [6], 0.1 µg/mL (≈ 0.143 µM). The MIC in test [7] is 0.1 µg/mL (≈ 0.143 µM).

As for `CC[n+]1ccc(SCC2=C(C(=O)[O-])N3C(=O)C(NC(=O)/C(=N\OC)c4csc(N)n4)[C@H]3SC2)c2cc(F)c(N3CCNCC3C)cc21` (stereo partly shown) [Compound I-12, 7-[(Z)-2-(2-aminothiazol-4-yl)-2-(methoxyimino)acetamido]-3-[1-ethyl-6-fluoro-7-(2-methylpiperazinyl)quinolinium-4-yl]thiomethyl-3-cephem-4-carboxylate], the “Antibacterial Activity (MIC)” value turned out to be 0.025 µg/mL in test [1]; 1.56 µg/mL in test [2]; 0.1 µg/mL in test [3]; 1.56 µg/mL in test [4]; 0.1 µg/mL in test [5]; 0.2 µg/mL in test [6]. The “Antibacterial Activity (MIC)” value in test [7] stood at 0.39 µg/mL.

Consider `C#CCO/N=C(\C(=O)NC1C(=O)N2C(C(=O)[O-])=C(CSc3cc[n+](CC)c4cc(N5CCNCC5)c(F)cc34)CS[C@H]12)c1csc(N)n1` (stereo partly shown) [Compound I-45, 7-[(Z)-2-(2-aminothiazol-4-yl)-2-(propargyloxyimino)acetamido]-3-(1-ethyl-6-fluoro-7-piperazinylquinolinium-4-yl)thiomethyl-3-cephem-4-carboxylate], for which the minimum inhibitory concentration (MIC) in test [1] came out at 0.39 µg/mL (≈ 0.549 µM); in test [2] it was 1.56 µg/mL (≈ 2.19 µM); in test [3] it was 0.2 µg/mL (≈ 0.281 µM); in test [4] it was 3.13 µg/mL (≈ 4.4 µM); in test [5], 0.1 µg/mL (≈ 0.141 µM); in test [6], 0.78 µg/mL (≈ 1.1 µM). Further, in test [7], the MIC is 0.78 µg/mL (≈ 1.1 µM).

Take `C=CCO/N=C(\C(=O)NC1C(=O)N2C(C(=O)[O-])=C(CSc3cc[n+](C)c4cc(N5CCN(CC)CC5)c(F)cc34)CSC12)c1csc(N)n1` (stereo not shown) [Compound I-23, 7-[(Z)-2-(2-aminothiazol-4-yl)-2-(allyloxyimino)acetamido]-3-[1-methyl-6-fluoro-7-(1-ethylpiperazinyl)quinolinium-4-yl]thiomethyl-3-cephem-4-carboxylate]: the MIC turned out to be 0.2 µg/mL (≈ 0.275 µM) in test [1]; 1.56 µg/mL (≈ 2.15 µM) in test [2]; 0.1 µg/mL (≈ 0.138 µM) in test [3]; 1.56 µg/mL (≈ 2.15 µM) in test [4]; 0.2 µg/mL (≈ 0.275 µM) in test [5]; 0.1 µg/mL (≈ 0.138 µM) in test [6]. For the same compound, in test [7], the MIC came out at 0.2 µg/mL (≈ 0.275 µM).

In the case of `CC1CNCCN1c1cc2c(cc1F)c(SCC1=C(C(=O)[O-])N3C(=O)C(NC(=O)/C(=N\OC(C)(C)C(=O)O)c4csc(N)n4)[C@H]3SC1)cc[n+]2C` (stereo partly shown) [Compound I-56, 7-[(Z)-2-(2-aminothiazol-4-yl)-2-(2-carboxyprop-2-oxyimino)acetamido]-3-[1-methyl-6-fluoro-7-(2-methylpiperazinyl)quinolinium-4-yl]thiomethyl-3-cephem-4-carboxylate], the “Antibacterial Activity (MIC)” value is 0.39 µg/mL in test [1]; 0.78 µg/mL in test [2]; 0.78 µg/mL in test [3]; 0.39 µg/mL in test [4]; 0.2 µg/mL in test [5]; 0.78 µg/mL in test [6]. For the same compound, the “Antibacterial Activity (MIC)” value in test [7] was found to be 0.39 µg/mL.

For the compound `C=CC[n+]1ccc(SCC2=C(C(=O)[O-])N3C(=O)C(NC(=O)/C(=N\OC)c4csc(N)n4)C3SC2)c2cc(F)c(N3CCN(C)CC3)cc21` (stereo not shown) [Compound I-14, 7-[(Z)-2-(2-aminothiazol-4-yl)-2-(methoxyimino)acetamido]-3-[1-allyl-6-fluoro-7-(N-methylpiperazinyl)quinolinium-4-yl]thiomethyl-3-cephem-4-carboxylate], the minimal inhibitory concentration (MIC) is 0.2 µg/mL (≈ 0.281 µM) in test [1]; 3.13 µg/mL (≈ 4.39 µM) in test [2]; 0.78 µg/mL (≈ 1.09 µM) in test [3]; 3.13 µg/mL (≈ 4.39 µM) in test [4]; 0.1 µg/mL (≈ 0.14 µM) in test [5]; 0.39 µg/mL (≈ 0.547 µM) in test [6]. In addition, in test [7], the MIC was 1.56 µg/mL (≈ 2.19 µM).

Regarding `CN1CCN(c2cc3c(cc2F)c(SCC2=C(C(=O)[O-])N4C(=O)C(NC(=O)/C(=N\OC(C)(C)C(=O)O)c5csc(N)n5)C4SC2)cc[n+]3C)CC1` (stereo not shown) [Compound I-54, 7-[(Z)-2-(2-aminothiazol-4-yl)-2-(2-carboxyprop-2-oxyimino)acetamido]-3-[1-methyl-6-fluoro-7-(N-methylpiperazinyl)quinolinium-4-yl]thiomethyl-3-cephem-4-carboxylate], the MIC in test [1] worked out at 1.56 µg/mL (≈ 2.06 µM); in test [2], 3.13 µg/mL (≈ 4.12 µM); in test [3], 6.25 µg/mL (≈ 8.24 µM); in test [4] it was 6.25 µg/mL (≈ 8.24 µM); in test [5], 0.78 µg/mL (≈ 1.03 µM); in test [6], 3.13 µg/mL (≈ 4.12 µM). For the same compound, in test [7], the MIC is 3.13 µg/mL (≈ 4.12 µM).

Consider `CCN1CCN(c2cc3c(cc2F)c(SCC2=C(C(=O)[O-])N4C(=O)C(NC(=O)/C(=N\OC)c5csc(N)n5)C4SC2)cc[n+]3CC)CC1` (stereo not shown) [Compound I-11, 7-[(Z)-2-(2-aminothiazol-4-yl)-2-(methoxyimino)acetamido]-3-[1-ethyl-6-fluoro-7-(1-ethylpiperazinyl)quinolinium-4-yl]thiomethyl-3-cephem-4-carboxylat], for which the MIC in test [1] came out at 0.05 µg/mL (≈ 0.0699 µM); in test [2], 1.56 µg/mL (≈ 2.18 µM); in test [3] it was 0.1 µg/mL (≈ 0.14 µM); in test [4], 1.56 µg/mL (≈ 2.18 µM); in test [5] it was 0.1 µg/mL (≈ 0.14 µM); in test [6], 0.2 µg/mL (≈ 0.28 µM). Also, the MIC in test [7] is 0.39 µg/mL (≈ 0.546 µM).

The values above are taken from patent US5663331A, “Cephalosporin compounds” (Il-Dong Pharm. Co., Ltd., priority 1992, dated 1997).
